The text below walks through data of US9957276B2, “CDK inhibitors” (G1 THERAPEUTICS, INC., priority 2010, dated 2018).

SMILES strings stand for the structures.

CDK4/CyclinD, sequence (P11802 whole entry, species assumed): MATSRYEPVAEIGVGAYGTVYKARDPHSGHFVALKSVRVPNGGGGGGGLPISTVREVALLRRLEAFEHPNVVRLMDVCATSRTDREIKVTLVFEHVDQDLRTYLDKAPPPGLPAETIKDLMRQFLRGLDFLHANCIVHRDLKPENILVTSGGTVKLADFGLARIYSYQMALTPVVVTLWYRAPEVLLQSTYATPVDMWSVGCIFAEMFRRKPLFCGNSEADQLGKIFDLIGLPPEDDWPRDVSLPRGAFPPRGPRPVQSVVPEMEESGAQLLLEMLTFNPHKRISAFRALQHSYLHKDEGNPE
CDK4/CyclinD, sequence (P24385 whole entry partner, species assumed): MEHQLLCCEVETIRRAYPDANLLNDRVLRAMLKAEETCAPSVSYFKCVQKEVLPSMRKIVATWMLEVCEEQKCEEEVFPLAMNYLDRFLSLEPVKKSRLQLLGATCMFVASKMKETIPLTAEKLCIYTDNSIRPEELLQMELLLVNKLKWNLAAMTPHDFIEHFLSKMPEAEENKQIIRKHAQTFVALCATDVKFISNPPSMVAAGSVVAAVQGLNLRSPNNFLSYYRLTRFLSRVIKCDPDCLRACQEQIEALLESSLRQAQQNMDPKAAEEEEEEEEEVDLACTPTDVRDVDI

The first assay addresses CDK4/CyclinD (Homo sapiens (Human), UniProt P11802). Nature of the assay: CDK4/CyclinD kinase enzymatic assay (Caliper LabChip). The assay is classed as biochemical. The settings on record: compounds as HCl salts, 12-point dose response, at the Km for ATP, three hours. The procedure: (§1) Kinase enzymatic reactions were performed in 384-well microplates using a 12-channel Caliper LabChip instrument as a detection device. […] As substrate and product are separated, two peaks of fluorescence are observed. Change in the relative fluorescence intensity of the substrate and product peaks is the parameter measured, reflecting enzyme activity. In the presence of an inhibitor, the ratio between product and substrate is altered. The signal of the product decreases, while the signal of the substrate increases.
(§2) Potential inhibitor compounds (as HCl salts) were tested using 12-point dose response curves in […] at the Km for ATP. The IC50 of each compound was determined using GraphPad Prism.
`CN1CCN(c2ccc(Nc3ncc4cc5n(c4n3)CCNC5=O)nc2)CC1` [Compound 1]: the IC50 was determined as 0.453 µM.

Staying with this assay, now noted: from the IC50 values.
As for `O=C1NCCn2c1cc1cnc(Nc3ccc(N4CCNCC4)cn3)nc12` [Compound 3], the “selectivity for Cdk4/CycD1 over Cdk2/CycE” value is 100 fold.

On to `CN1CCN(c2ccc(Nc3ncc4cc5n(c4n3)CCNC5=O)nc2)CC1` [Compound 1], for which the “selectivity for Cdk4/CycD1 over Cdk2/CycE” value was 200 fold.

In a further assay the target is CDK2/cyclinE (Homo sapiens (Human), UniProt P24941). The experiment in a line: CDK2/cyclinE kinase enzymatic assay (Caliper LabChip). The assay is classed as biochemical. The settings on record: Table 2, class symbols; read-out: CDK2/CycE IC50. The method, then: as §1, §2
In the case of `CC(C)C1CNC(=O)c2cc3cnc(Nc4ccc(N5CCN(C)CC5)cn4)nc3n21` (stereo not shown) [Compound 7], the IC50 was > 100 µM.

For `CN1CCn2c(cc3cnc(Nc4ccc(N5CCNCC5)cn4)nc32)C1=O` [Compound 5], the IC50 was > 100 µM.

`O=C1N[C@H]2CCC[C@@H]2n2c1cc1cnc(Nc3ccc(N4CCNCC4)cn3)nc12` [Compound 49]: the IC50 fell in the range of 1 to 100 µM.

Turning to `CN1CCN(c2ccc(Nc3ncc4cc5n(c4n3)CCNC5=O)nc2)CC1` [Compound 1], the IC50 is > 100 µM.

Consider `CC(C)[C@H]1CN(C)C(=O)c2cc3cnc(Nc4ccc(N5CCNCC5)cn4)nc3n21` [Compound 11], for which the IC50 is > 100 µM.

Consider `CC(C)C1CNC(=O)c2cc3cnc(Nc4ccc(N5CCN(C(=O)OC(C)(C)C)CC5)cn4)nc3n21` (stereo not shown) [Compound 6], for which the IC50 was > 100 µM.

`CN1CCN(c2ccc(Nc3ncc4cc5n(c4n3)[C@H]3CCC[C@@H]3NC5=O)nc2)CC1` [Compound 48]: the IC50 is > 100 µM.

As to `CC(C)C[C@H]1CN(C)C(=O)c2cc3cnc(Nc4ccc(N5CCN(C)CC5)cn4)nc3n21` [Compound 14], the IC50 was > 100 µM.

For the compound `CN1CC2(CCCC2)n2c(cc3cnc(Nc4ccc(N5CCNCC5)cn4)nc32)C1=O` [Compound 31], the IC50 is > 100 µM.

In the case of `CC(C)CC1CN(C)C(=O)c2cc3cnc(Nc4ccc(N5CCNCC5)cn4)nc3n21` (stereo not shown) [Compound 47], the IC50 was > 100 µM.

As for `CC(C)C[C@H]1CN(C)C(=O)c2cc3cnc(Nc4ccc(N5CCNCC5)cn4)nc3n21` [Compound 15], the IC50 was > 100 µM.

As to `CCC(C)[C@H]1CN(C)C(=O)c2cc3cnc(Nc4ccc(N5CCN(C)CC5)cn4)nc3n21` (stereo partly shown) [Compound 18], the IC50 was > 100 µM.

Turning to `CCC(C)[C@H]1CN(C)C(=O)c2cc3cnc(Nc4ccc(N5CCNCC5)cn4)nc3n21` (stereo partly shown) [Compound 19], the IC50 was > 100 µM.
